14 molecules from PubChem BioAssay AID493105 (The Scripps Research Institute Molecular Screening Center, 2011) can be followed below.

Each structure is given as a SMILES string. The source made the active and inactive calls. The rule behind the calls is not given here.

Test in all cases: LYPLA1 and LYPLA2 inhibitors, biochemical, gel-based ABPP, fluorescence, recombinant and endogenous enzyme (AID 493105)
In one experiment the test system is emLYPLA1. The conditions noted are these: fluorescent probe labeling, membrane fraction, at 20 µM, active compounds read high.
In the next experiment the test system is emLYPLA2. The conditions noted are these: fluorescent probe labeling, membrane fraction, at 20 µM, active compounds read high.
The next experiment has as its system rhLYPLA1. The conditions noted are these: fluorescent probe labeling, soluble fraction, at 20 µM, active compounds read high.
Another experiment relates to rhLYPLA2. The conditions noted are these: fluorescent probe labeling, membrane fraction, at 20 µM, active compounds read high.

As for `CCC(=O)N1CCN(c2ccc(NC(=S)NC(=O)c3ccc(OC)c([N+](=O)[O-])c3)cc2)CC1`, the inhibition in the experiment on emLYPLA1 is 13% (inactive); in the experiment with emLYPLA2 it was 40%; in the experiment on rhLYPLA1, 25% (inactive); in the experiment with rhLYPLA2 it was 21% (inactive).

Take `CC1CC(C)CN(S(=O)(=O)c2ccc3c(c2)CC(C)N3C(=O)C2CCC2)C1` (stereo unspecified): the inhibition was 0% (inactive) in the experiment on emLYPLA1, 0% (inactive) in the experiment with emLYPLA2, 9% (inactive) in the experiment on rhLYPLA1 and 0% (inactive) in the experiment on rhLYPLA2.

For the molecule `CC(=O)N1CCC2(CC1)C/C(=N\NC(=S)Nc1ccc(C)cc1)c1cc(O)ccc1O2`, the inhibition in the experiment with emLYPLA1 was 0% (inactive); with emLYPLA2, 1% (inactive); in the experiment with rhLYPLA1, 3% (inactive); with rhLYPLA2, 0% (inactive).

In the case of `COc1ccc(N2CCN(C(=O)C3CCC(Cn4c(=S)[nH]c5ccccc5c4=O)CC3)CC2)cc1` (stereo unspecified), the inhibition was 2% (inactive) in the experiment with emLYPLA1, 67% with emLYPLA2, 0% (inactive) with rhLYPLA1 and 45% in the experiment with rhLYPLA2.

For `O=C(NCCNC(=O)c1cc(OCC(F)(F)F)ccc1OCC(F)(F)F)Nc1cccc(C(F)(F)F)c1`, the inhibition is 12% (inactive) in the experiment with emLYPLA1, 7% (inactive) in the experiment on emLYPLA2, 57% with rhLYPLA1 and 0% (inactive) in the experiment on rhLYPLA2.

For `O=C(COc1ccc(Cl)cc1)N1CCN(c2cccc(C(F)(F)F)c2)CC1`, the inhibition was 0% (inactive) in the experiment on emLYPLA1, 9% (inactive) in the experiment on emLYPLA2, 0% (inactive) in the experiment on rhLYPLA1 and 0% (inactive) in the experiment with rhLYPLA2.

Take `O=C(CCCCCCN1C(=O)c2ccccc2C1=O)N1CCC(c2ccccc2)C1` (stereo unspecified): the inhibition in the experiment with emLYPLA1 is 0% (inactive); in the experiment with emLYPLA2, 17% (inactive); in the experiment on rhLYPLA1, 17% (inactive); with rhLYPLA2, 2% (inactive).

Regarding `COc1ccc(C(=O)NC(=S)Nc2ccc(N3CCN(C(C)=O)CC3)cc2)cc1[N+](=O)[O-]`, the inhibition in the experiment with emLYPLA1 is 10% (inactive); with emLYPLA2, 31%; in the experiment with rhLYPLA1 it was 44%; with rhLYPLA2, 15% (inactive).

Turning to `CC(NC(=O)c1ccco1)C(=O)N1CCN(c2cccc(C(F)(F)F)c2)CC1` (stereo unspecified), the inhibition in the experiment on emLYPLA1 is 0% (inactive); in the experiment on emLYPLA2, 12% (inactive); in the experiment on rhLYPLA1, 20% (inactive); in the experiment on rhLYPLA2, 5% (inactive).

`OC(COc1ccc(Cl)cc1)CN1CCN(c2cccc(Cl)c2)CC1` (stereo unspecified): the inhibition in the experiment with emLYPLA1, with emLYPLA2, with rhLYPLA1 and in the experiment on rhLYPLA2 was 0% (inactive) each time.

Take `COc1ccc2c(c1)C(=O)[C@H](O)[C@@H](c1ccc(OC)c(Br)c1)O2`: the inhibition in the experiment with emLYPLA1 is 0% (inactive); in the experiment on emLYPLA2 it was 73%; in the experiment on rhLYPLA1, 0% (inactive); in the experiment with rhLYPLA2 it was 51%.

Consider `O=C(Nc1ccc2oc(-c3cccnc3)nc2c1)c1ccc2c(c1)OCCO2`, for which the inhibition with emLYPLA1, in the experiment with emLYPLA2, in the experiment with rhLYPLA1 and with rhLYPLA2 was 0% (inactive) in each case.

Regarding `CCC(=C/c1sc2ccc3ccccc3c2[n+]1C)/C=C1\Sc2ccc3ccccc3c2N1C`, the inhibition in the experiment with emLYPLA1 is 1% (inactive); in the experiment on emLYPLA2, 7% (inactive); in the experiment with rhLYPLA1, 0% (inactive); in the experiment with rhLYPLA2, 2% (inactive).

With `COc1ccc(-n2nc(C(=O)NCC(=O)N3CCN(Cc4ccccc4)CC3)c3ccccc3c2=O)c(OC)c1`, the inhibition in the experiment on emLYPLA1 was 0% (inactive); with emLYPLA2, 46%; with rhLYPLA1, 31%; in the experiment on rhLYPLA2, 30%.
